These compounds were tested on LL-37-induced inflammation in mouse ears (assay: LL37-induced model of rosacea in mice (ear thickness)). Details: topical to ears; p<0.05 vs. vehicle; FIG. 2.
Assay type: in vivo
Description: LL37-Induced Model of Rosacea in Mice:
Prior to dosing, animals are lightly anaesthetized with isofluorane and baseline right and left ear thickness measurements are made with a digital caliper (Mitutoyo 293-340). At t=−1 hrs, animals are lightly anaesthetized with isoflurane to allow topical application (dorsal side) of 10 μL of FPR2 agonist formulated in a vehicle consisting of PBS:ethanol (50:50), or vehicle control to both ears. At t=0 hr, mice are re-anaesthetized. Following ear thickness measurements, 20 uL of LL-37 (100 μM) is injected into the right ear, while PBS is injected into the left ear. Additional ear thickness measurements are taken at t=3 and 6 hours. After the last time point, mice are euthanized by CO2 inhalation and ears collected for additional analyses.
`CC[C@H](C)[C@H](NC(=O)Nc1ccc(Br)cc1)C(=O)NCC(=O)O` [Compound 3, {[(2S,3S)-2-{[(4-bromophenyl)carbamoyl]amino}-3-methylpentanoyl]amino} acetic acid] was tested, and the “inflammation induced by LL-37 in mouse ears” value (from here on “inflammation induced”) was “Anti-inflammatory activity”. In the case of `CC(C)C[C@H](NC(=O)Nc1ccc(Br)cc1F)C(=O)NCC(=O)O` [Compound 7, {[(2S)-2-{[(4-bromo-2-fluorophenyl)carbamoyl]amino}-4-methylpentanoyl]amino} acetic acid], the “inflammation induced” value is reported as “Anti-inflammatory activity”. `CC(C)C[C@H](NC(=O)Nc1ccc(Br)cc1)C(=O)NCC(=O)O` [Compound 8, {[(2S)-2-{[(4-bromophenyl)carbamoyl]amino}-4-methylpentanoyl]amino} acetic acid] was tested, and the “inflammation induced” value was “Anti-inflammatory activity”.

Each compound was assayed against human FPR2 receptor (Homo sapiens (Human), UniProt P25090) (assay: FLIPR Ca+2 response in HEK-Gα16 cells stably expressing the human FPR2 receptor). Details: Table 4; HEK-Gα16 human FPR2, FLIPR.
Sequence of human FPR2 receptor (P25090 whole entry): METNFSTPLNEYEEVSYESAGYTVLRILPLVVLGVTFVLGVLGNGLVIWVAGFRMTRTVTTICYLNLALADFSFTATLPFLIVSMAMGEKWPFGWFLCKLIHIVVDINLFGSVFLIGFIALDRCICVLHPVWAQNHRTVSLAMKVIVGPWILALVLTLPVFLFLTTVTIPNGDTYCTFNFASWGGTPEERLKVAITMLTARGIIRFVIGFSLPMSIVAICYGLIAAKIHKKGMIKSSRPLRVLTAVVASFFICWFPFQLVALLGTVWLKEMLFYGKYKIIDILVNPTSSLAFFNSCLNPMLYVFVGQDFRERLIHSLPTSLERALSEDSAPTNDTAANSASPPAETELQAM
Assay type: cell-based
Description: HEK-Gα16 cells stably expressing the human FPR2 receptor was utilized. Cells were plated into 384-well poly-D-lysine coated plates at a density of 18,000 cells per well one day prior to use. The growth media was DMEM medium supplemented with 10% fetal bovine serum (FBS), 1% antibiotic-antimycotic, 50 μg/ml hygromycin, and 400 μg/ml geneticin. On the day of the experiment, the cells were washed twice with Hank's Balanced Salt Solution supplemented with 20 mM HEPES (HBSS/hepes buffer). The cells were then dye loaded with 2 μM Fluo-4 diluted in the HBSS/Hepes buffer and incubated at 37° C. for 40 minutes. Extracellular dye was removed by washing the cell plates four times prior to placing the plates in the FLIPR (Fluorometric Imaging Plate Reader, Molecular Devices). Ligands were diluted in HBSS/Hepes buffer and prepared in 384-well microplates. Data for Ca^+2 responses were obtained in relative fluorescence units.
`O=C(O)[C@@H]1C2CCC([C@@H]1C(=O)Nc1ccc(Br)cc1)C21CC1` (relative stereo) [Compound 14, rel-(2R,3 S)-3-[(4-brornophenyl)carbarnoyl]spiro [bicyclo[2.2.1]heptane-7,1′-cyclopropane]-2-carboxylic acid] showed an EC50 of 4 nM. For `CSc1ccc(NC(=O)C2C(C(=O)O)C3C=CC2C32CC2)cc1` (stereo not drawn) [Compound 31, 3-{[4-(methylsulfanyl)phenyl]carbamoyl} spiro[bicyclo[2.2.1]heptane-7,1′-cyclopropane]-5-ene-2-carboxylic acid], the EC50 was 14 nM. `CCOP(=O)(CCNC(=O)[C@H](CC(C)C)NC(=O)Nc1ccc(Br)cc1)OCC` [Compound 119, diethyl (2-{[(2S)-2-{[(4-bromophenyl)carbamoyl]amino}-4-methylpentanoyl]amino}ethyl) phosphonate] gave an EC50 of 16.1 nM.

Same assay, conditions: Table 4; value in parentheses, given mostly as fraction
`CC(C)C[C@H](NC(=O)Nc1ccc(Br)cc1)C(=O)NCC(O)CO` (stereo partly drawn) [Compound 95, (2S)-2-{[(4-bromophenyl)carbamoyl]amino}-N-(2,3-dihydroxypropyl)-4-methylpentanamide] gave an FPR2 (% eff) of 98%. For `O=C(O)[C@@H]1C2CCC([C@@H]1C(=O)Nc1ccc(Br)cc1)C21CC1` (relative stereo) [Compound 14, rel-(2R,3 S)-3-[(4-brornophenyl)carbarnoyl]spiro [bicyclo[2.2.1]heptane-7,1′-cyclopropane]-2-carboxylic acid], the FPR2 (% eff) was 90%. For `CC(C)C[C@H](NC(=O)Nc1ccc(Br)cc1)C(=O)N[C@@H](C)C(=O)O` [Compound 90, (2S)-2-{[(2S)-2-{[(4-bromophenyl)carbamoyl]amino}-4-methylpentanoyl]amino} propanoic acid], the FPR2 (% eff) was 100%. With `CC(C)C[C@H](NC(=O)Nc1ccc(C(F)(F)F)cc1)C(=O)NCC(=O)O` [Compound 124, {[(2S)-4-methyl-2-({[4-(trifluoromethyl)phenyl]carbamoyl}amino)pentanoyl]amino}acetic acid] the FPR2 (% eff) was 100%. For `CCC[C@H](NC(=O)Nc1ccc(Br)cc1)C(=O)NCP(=O)(OCC)OCC` [Compound 117, diethyl (1[(2S)-2-1[(4-bromophenyl)carbamoyl]amino}pentanoyl]amino}methyl) phosphonate], the FPR2 (% eff) was 100%. With `CCOP(=O)(CNC(=O)[C@H](CC(C)C)NC(=O)Nc1ccc(C(F)(F)F)cc1)OCC` [Compound 134, diethyl ({[(2S)-4-methyl-2-({[4-(trifluoromethyl)phenyl]carbamoyl}amino)pentanoyl]amino}methyl)phosphonate] the FPR2 (% eff) was 97%. `CCOP(=O)(O)CNC(=O)[C@H](CC(C)C)NC(=O)Nc1ccc(Br)cc1` [Compound 105, ethyl hydrogen ({[(2S)-2-{[(4-bromophenyl)carbamoyl]amino}-4-methylpentanoyl]amino}methyl)phosphonate] showed an FPR2 (% eff) of 88%. `CCC[C@H](NC(=O)Nc1ccc(Br)cc1)C(=O)NCP(=O)(O)OCC` [Compound 123, ethyl hydrogen ({[(2S)-2-{[(4-bromophenyl)carbamoyl]amino}pentanoyl]amino}methyl) phosphonate] was tested, and the FPR2 (% eff) was 96%. Work on `CCOP(=O)(CNC(=O)[C@H](Cc1ccccc1)NC(=O)Nc1ccc(Br)cc1)OCC` [Compound 118, diethyl ({[(2S)-2-{[(4-bromophenyl)carbamoyl]amino}-3-phenylpropanoyl]amino}methyl)phosphonate] yielded an FPR2 (% eff) of 93%. In the case of `CCOP(=O)(O)CNC(=O)[C@@H](NC(=O)Nc1ccc(Br)cc1)[C@@H](C)CC` [Compound 115, ethyl hydrogen ({[(2S,3S)-2-{[(4-bromophenyl)carbamoyl]amino}-3-methylpentanoyl]amino}methyl)phosphonate], the FPR2 (% eff) is reported as 88%. For `CCOP(=O)(CCNC(=O)CC1(C(C)C)NC(=O)N(NC(=O)Nc2ccc(Br)cc2)C1=O)OCC` (stereo not drawn) [Compound 152, diethyl [2-({[1-{[(4-bromophenyl)carbamoyl]amino}-2,5-dioxo-4-(propan-2-yl)imidazolidin-4-yl]acetyl}amino)ethyl] phosphonate], the FPR2 (% eff) was 100%. Work on `CSc1ccc(NC(=O)C2C(C(=O)O)C3C=CC2C32CC2)cc1` (stereo not drawn) [Compound 31, 3-{[4-(methylsulfanyl)phenyl]carbamoyl} spiro[bicyclo[2.2.1]heptane-7,1′-cyclopropane]-5-ene-2-carboxylic acid] yielded an FPR2 (% eff) of 96%. `CC(C)C[C@H](NC(=O)Nc1ccc(Br)cc1)C(=O)NCc1cc(O)no1` [Compound 116, (2S)-2-{[(4-bromophenyl)carbamoyl]amino}-N-[(3-hydroxy-1,2-oxazol-5 - yl)methyl]-4-methylpentanamide] was tested, and the FPR2 (% eff) was 100%. Compound `CCOP(=O)(CNC(=O)[C@H](CC(C)C)NC(=O)Nc1ccc(SC)cc1)OCC` [Compound 138] has an FPR2 (% eff) of 91%. In the case of `CCOP(=O)(O)CNC(=O)[C@H](Cc1ccccc1)NC(=O)Nc1ccc(Br)cc1` [Compound 126, ethyl hydrogen ({[(2S)-2-{[(4-bromophenyl)carbamoyl]amino}-3-phenylpropanoyl]amino}methyl)phosphonate], the FPR2 (% eff) is reported as 100%. Compound `CCOP(=O)(O)CNC(=O)[C@H](CC(C)C)NC(=O)Nc1ccc(C(F)(F)F)cc1` [Compound 135, ethyl hydrogen ({[(2S)-4-methyl-2-({[4-(trifluoromethyl)phenyl]carbamoyl}amino)pentanoyl]amino}methyl)phosphonate] has an FPR2 (% eff) of 91%.

These compounds were tested against FPRL-1 (Homo sapiens (Human), UniProt P25090) (assay: FPRL-1 Ga16-CHO EC50 (efficacy)). Details: Table 3; value in parentheses.
Sequence of FPRL-1 (P25090 whole entry): as above
Assay type: cell-based
`CC1(C2CC2)NC(=O)N(CC(=O)Nc2ccc(Br)cc2)C1=O` (stereo not drawn) [N-(4-bromophenyl)-2-(4-cyclopropyl-4-methyl-2,5-dioxoimidazolidin-1-yl)acetamide] was tested, and the “FPRL-1 Ga16-CHO (efficacy)” value was 0.84. `CCC1(CC)NC(=O)N(CC(=O)Nc2ccc(Cl)cc2)C1=O` [N-(4-chlorophenyl)-2-(4,4-diethyl-2,5-dioxoimidazolidin-l-yl)acetamide] was tested, and the “FPRL-1 Ga16-CHO (efficacy)” value was 0.79. With `O=C(CN1C(=O)NC2(CCCC2)C1=O)Nc1ccc(Br)cc1` [N-(4-bromophenyl)-2-(2,4-dioxo-1,3-diazaspiro[4.4]non-3-yl)acetamide] the “FPRL-1 Ga16-CHO (efficacy)” value was 0.96. For `CCC1(C)NC(=O)N(CC(=O)Nc2ccc(Br)cc2)C1=O` (stereo not drawn) [N-(4-bromophenyl)-2-(4-ethyl-4-methyl-2,5-dioxoimidazolidin-1-yl)acetamide], the “FPRL-1 Ga16-CHO (efficacy)” value was 1.0. `CC1(CCc2ccccc2)NC(=O)N(CC(=O)Nc2ccc(Br)cc2)C1=O` (stereo not drawn) [N-(4-bromophenyl)-2-[4-methyl-2,5-dioxo-4-(2-phenylethyl)imidazolidin-1-yl]acetamide] was tested, and the “FPRL-1 Ga16-CHO (efficacy)” value was 0.88. With `CC1(C)NC(=O)N(CC(=O)Nc2ccc(Br)cc2)C1=O` [N-(4-bromophenyl)-2-(4,4-dimethyl-2,5-dioxoimidazolidin-1-yl)acetamide] the “FPRL-1 Ga16-CHO (efficacy)” value was 0.94. With `CCCC1(CCC)NC(=O)N(CC(=O)Nc2ccc(Br)cc2)C1=O` [N-(4-bromophenyl)-2-(2,5-dioxo-4,4-dipropylimidazolidin-1-yl)acetamide] the “FPRL-1 Ga16-CHO (efficacy)” value was 0.98. `O=C(CN1C(=O)C2CC=CCC2C1=O)Nc1ccc(Br)cc1` (stereo not drawn) [N-(4-bromophenyl)-1,3,3a,4,7,7a-hexahydro-1,3-dioxo-2H-isoindole-2-acetamide] was tested, and the “FPRL-1 Ga16-CHO (efficacy)” value was 0.98. In the case of `CCC1(c2ccccc2)NC(=O)N(CC(=O)Nc2ccc(Br)cc2)C1=O` (stereo not drawn) [N-(4-bromophenyl)-2-(4-ethyl-2,5-dioxo-4-phenylimidazolidin-1-yl)acetamide], the “FPRL-1 Ga16-CHO (efficacy)” value is reported as 0.83. For `CCC1(CC)NC(=O)N(CC(=O)Nc2ccc(F)cc2)C1=O` [2-(4,4-diethyl-2,5-dioxoimidazolidin-1-yl)-N-(4-fluorophenyl)acetamide], the “FPRL-1 Ga16-CHO (efficacy)” value was 0.67. In the case of `O=C(CN1C(=O)C2C3C=CC(C3)C2C1=O)Nc1ccc(Br)cc1` (stereo not drawn) [N-(4-bromophenyl)-1,3,3a,4,7,7a-hexahydro-1,3-dioxo-4,7-methano-2H-isoindole-2-acetamide], the “FPRL-1 Ga16-CHO (efficacy)” value is reported as 0.90. With `O=C(CN1C(=O)NC2(CCCCCC2)C1=O)Nc1ccc(Br)cc1` [N-(4-bromophenyl)-2-(2,4-dioxo-1,3-diazaspiro[4.6]undec-3-yl)acetamide] the “FPRL-1 Ga16-CHO (efficacy)” value was 0.96. For `CCC1(CC)NC(=O)N(CC(=O)Nc2ccc(Br)cc2)C1=O` [N-(4-bromophenyl)-2-(4,4-diethyl-2,5-dioxoimidazolidin-1-yl)acetamide], the “FPRL-1 Ga16-CHO (efficacy)” value was 0.98. For `O=C(CN1C(=O)NC2(CCCCC2)C1=O)Nc1ccc(Br)cc1` [N-(4-bromophenyl)-2-(2,4-dioxo-1,3-diazaspiro[4.5]dec-3-yl)acetamide], the “FPRL-1 Ga16-CHO (efficacy)” value was 0.89.
